According to US12545652B2, “Crystalline forms of a TYK2 inhibitor” (Sareum Limited, priority 2020, dated 2026):
pIC50: −log10 of the molar value. Entries after “also recorded” stand apart in the source; their conditions may differ. Where two headings read alike, the source gives them in different places. Values belong to the compound of their own block, whether it stands above or below them.

How the values were obtained:
[1] = Hepatocyte stability assay, dog; type: in vitro ADME; details: male, Beagle, pooled hepatocytes
Procedure: (§1) Test and control compounds were incubated with hepatocytes at 37° C. Aliquots were removed at 6 timepoints over a one hour period. Samples were centrifuged and the supernatant fractions analysed for parent compound by mass spectrometry (LC-MS/MS).
(§2) The amount of compound remaining (expressed as %) was determined from the MS response in each sample relative to that in the T=0 samples, and used to determine the half-life and intrinsic clearance of the compound.

[2] = Hepatocyte stability assay, mouse; type: in vitro ADME; details: male, CD-1, pooled hepatocytes
Procedure: as §1, §2

[3] = Hepatocyte stability assay, human; type: in vitro ADME; details: both sexes, pooled hepatocytes; for half-life: human
Procedure: as §1, §2

[4] = Hepatocyte stability assay, rat; type: in vitro ADME; details: male, Sprague-Dawley, pooled hepatocytes
Procedure: as §1, §2

[5] = test system: pSTAT3 in IL-22 stimulated HT29 cells; experiment: pSTAT3 inhibition in response to IL-22 stimulation in serum starved HT29 cells; type: cell-based; details: Homo sapiens, HT-29
Procedure: HT29 cells were serum starved overnight before the four test compounds were diluted to generate a 9-point semi-log dose dilution with a top concentration of 10 μM, plus vehicle control. HT29 cells were incubated with the test compounds for 20 minutes at 37° C. HT29 cells were incubated for a further 15 minutes with 10 ng/ml human IL-22 before cells were fixed with 4% PFA for 10 minutes, and 90% methanol for 30 minutes before being labelled with a phospho-STAT3Y705 antibody (CST #9145). Cells were rinsed three times using 0.5% BSA/PBS solution before being incubated with Alexa-488 anti-rabbit secondary antibodies.
Mean fluorescence intensity of phospho-STAT3 in single cells was analysed by flow cytometry using an Intellicyt iQue instrument and FlowJo software. The IC50 was determined using a four-parameter analysis following removal of background signal and normalisation to the DMSO control.

[6] = Solubility at 25° C. by HPLC of filtrates after equilibration of Form A in solvents; type: physicochemical; details: for solubility: 25 °C, organic solvent or mixture, thermodynamic from solid
TYK2 kinase = TYK2 kinase (Homo sapiens (Human), UniProt P29597); experiment: TYK2 kinase inhibition assay (33P-ATP filter binding, Reaction Biology); type: biochemical; details: ratio of IC50 to TYK2 IC50
Sequence of TYK2 kinase (P29597 833-1187): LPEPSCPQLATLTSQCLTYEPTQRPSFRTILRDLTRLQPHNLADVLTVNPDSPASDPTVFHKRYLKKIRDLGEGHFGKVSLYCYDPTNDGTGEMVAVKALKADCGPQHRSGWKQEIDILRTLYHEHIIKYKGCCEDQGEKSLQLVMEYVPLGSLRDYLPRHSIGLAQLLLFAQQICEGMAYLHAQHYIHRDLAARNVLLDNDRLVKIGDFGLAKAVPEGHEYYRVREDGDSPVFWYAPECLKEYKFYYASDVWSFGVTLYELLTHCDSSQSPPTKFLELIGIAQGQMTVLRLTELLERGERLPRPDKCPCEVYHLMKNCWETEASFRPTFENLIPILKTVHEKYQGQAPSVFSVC
Procedure: (§3) The compound of the formula (1) was assayed for its ability to inhibit TYK2 kinase and other JAK kinases.
(§4) Substrates and kinases used in the assays are identified in Table 12 below.
(§5) Kinase assays were performed at Reaction Biology Corp., Malvern, Pennsylvania, USA, using the general procedure set out below. In the assays, the ATP concentration was 100 μM and the top compound concentrations were 10 μM.
(§6) Note that the TYK2 and JAK kinase data in Table 7 on page 61 of WO 2015/032423 were generated using an assay in which the ATP concentration was 10 μM whereas, as indicated above, the assay described in the protocol below used an ATP concentration of 100 μM. […]

JAK1 = JAK1 (Homo sapiens (Human), UniProt P23458); experiment: JAK1 kinase inhibition assay (33P-ATP filter binding, Reaction Biology); type: biochemical; details: ratio of IC50 to TYK2 IC50
Sequence of JAK1 (P23458 866-1154): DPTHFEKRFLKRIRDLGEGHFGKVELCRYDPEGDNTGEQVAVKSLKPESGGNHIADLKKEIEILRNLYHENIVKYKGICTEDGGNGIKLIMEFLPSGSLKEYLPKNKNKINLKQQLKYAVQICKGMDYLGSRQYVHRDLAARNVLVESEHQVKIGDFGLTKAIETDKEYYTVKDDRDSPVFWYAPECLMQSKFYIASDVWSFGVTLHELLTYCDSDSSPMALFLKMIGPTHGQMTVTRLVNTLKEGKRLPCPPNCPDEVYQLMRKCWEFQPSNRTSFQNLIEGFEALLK
Procedure: as §3, §4, §5, §6

JAK2 = JAK2 kinase inhibition assay (33P-ATP filter binding, Reaction Biology); type: biochemical
Procedure: as §3, §4, §5, §6

JAK3 = JAK3 (Homo sapiens (Human), UniProt P52333); experiment: JAK3 kinase inhibition assay (33P-ATP filter binding, Reaction Biology); type: biochemical
Sequence of JAK3 (P52333 781-1124): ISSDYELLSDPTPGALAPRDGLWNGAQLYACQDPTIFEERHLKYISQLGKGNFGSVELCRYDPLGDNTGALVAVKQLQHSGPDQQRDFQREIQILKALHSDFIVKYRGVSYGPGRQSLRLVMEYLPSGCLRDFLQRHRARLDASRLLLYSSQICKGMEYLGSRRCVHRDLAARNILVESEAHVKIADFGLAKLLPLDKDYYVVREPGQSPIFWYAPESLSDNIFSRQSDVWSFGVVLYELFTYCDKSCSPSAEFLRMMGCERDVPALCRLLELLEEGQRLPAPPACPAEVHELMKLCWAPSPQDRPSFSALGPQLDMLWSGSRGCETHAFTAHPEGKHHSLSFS
Procedure: as §3, §4, §5, §6

[7] = Dynamic vapour sorption (DVS); type: physicochemical
Procedure: Sorption isotherms were obtained using a Hiden Isochema moisture sorption analyser (model IGAsorp), controlled by IGAsorp Systems Software V6.50.48. The sample was maintained at a constant temperature (25° C.) by the instrument controls. The humidity was controlled by mixing streams of dry and wet nitrogen, with a total flow of 250 ml·min^−1. The instrument was verified for relative humidity content by measuring three calibrated Rotronic salt solutions (10-50-88%). The weight change of the sample was monitored as a function of humidity by a microbalance (accuracy +/−0.005 mg). A defined amount of sample was placed in a tared mesh stainless steel basket under ambient conditions. A full experimental cycle typically consisted of three scans (sorption, desorption and sorption) at a constant temperature (25° C.) and 10% RH intervals over a 0-90% range (60 minutes for each humidity level).

[8] = Compression stability test (10×10^4N force); type: physicochemical
Procedure: Compression stability tests were carried out on samples from two batches of crystalline Form A and samples from two batches of Crystalline Form B. One pair of samples of Form A and Form B was subjected to compression under 10×10^4N force for 23 and 23¾ hours respectively to assess the impact upon form fate and chemical stability.
The other pair of samples of Form A and Form B was subjected to similar compression pressures over an extended duration of 7 days to assess the impact of prolonged compression force upon form fate and chemical stability.

[9] = Human hepatocytes, read-out: T1/2
[10] = IL-22 stimulated serum starved HT29 cells, read-out: pSTAT3 inhibition IC50

half-life [1]: 53.5 min | half-life [2]: 27 min | half-life [3, 9]: 124 min | half-life ([3]; human hepatocytes, read-out: half-life in humans): > 120 min | half-life [4]: 14.8 min | pIC50 [5, 10]: 7.28
Structure (SMILES): NC(=O)c1nc(-c2c(Cl)cccc2Cl)oc1Nc1ccc(C(=O)N2CCOCC2)cc1 [Comparative Compound B, 2-(2,6-dichloro-phenyl)-5-[4-(morpholine-4-carbonyl)-phenylamino]-oxazole-4-carboxylic acid amide, reference compound]

Solubility at 25° C. ([6]; 2-Chlorobutane): < 1000 µg/mL | Solubility at 25° C. ([6]; 4:1 THF/water): > 10000 µg/mL | Solubility at 25° C. ([6]; Cyclohexane): < 1000 µg/mL | Solubility at 25° C. ([6]; DCM): > 10000 µg/mL | Solubility at 25° C. ([6]; Nitromethane): > 10000 µg/mL | solubility ([6]; TBME): < 1000 µg/mL | Solubility at 25° C. ([6]; THF): > 10000 µg/mL | Solubility at 25° C. ([6]; Water): < 1000 µg/mL | solubility ([6]; anisole): > 10000 µg/mL | solubility ([6]; heptane, no peak detected in the chromatogram for the filtrate (×100 dilution)): < 1000 µg/mL | Selectivity v TYK2: TYK2 (TYK2 kinase): 1 | Selectivity v TYK2: JAK1 (JAK1): 10.5 | half-life [1]: > 460 min | hepatocyte CLint [1]: < 3 µL/min/1e6 cells | selectivity for TYK2 compared to JAK2 (JAK2; biochemical assays): approximately 25 fold | Selectivity v TYK2: JAK2 (JAK2; ratio of IC50 to TYK2 IC50): 26.3 | half-life [2]: 65.3 min | half-life [3, 9]: > 460 min | hepatocyte CLint ([3]; Human hepatocytes): < 3 µL/min/1e6 cells | half-life [4]: 30.6 min | pIC50 ([5]; IL-22 stimulated HT29 cells, read-out: IC50 against pSTAT3 inhibition): > 7.00 | pIC50 [5, 10]: 7.80 | selectivity for TYK2 compared to JAK3 (JAK3; biochemical assays): ~110 fold | Selectivity v TYK2: JAK3 (JAK3; ratio of IC50 to TYK2 IC50): 111.6
Structure (SMILES): NC(=O)c1nc(-c2c(Cl)cccc2Cl)oc1Nc1ccc(C(=O)N2CCS(=O)(=O)CC2)cc1 [Compound (1), 2-(2,6-dichlorophenyl)-5-[4-(1,1-dioxo-1,4-thiazinane-4-carbonyl)anilino]oxazole-4-carboxamide]

XRPD examination of the solid isolated post-DVS ([7]; at 0 and 90% RH): no clear evidence of form modification | DVS total weight gain upon sorption ([7]; from 0 to 90% RH, 25° C.): ca. 0.57 wt % | DVS weight reduction upon the first desorption ([7]; from 50 to 0% RH, 25° C.): ca. 0.38 wt % | DVS hysteresis ([7]; repeat desorption and sorption, most evident between 10 and 60% RH): ca. 0.11 wt %
Structure (SMILES): NC(=O)c1nc(-c2c(Cl)cccc2Cl)oc1Nc1ccc(C(=O)N2CCS(=O)(=O)CC2)cc1 [Form B, 2-(2,6-dichlorophenyl)-5-[4-(1,1-dioxo-1,4-thiazinane-4-carbonyl)anilino]oxazole-4-carboxamide]
HPLC assessment post-compression (chemical stability) ([8]; compression for 7 days): no change to the impurity profile; also recorded: no discernible chemical degradation | XRPD examination of solids isolated post-compression (form fate) ([8]; compression for both ca. 1 and 7 days): diffraction pattern matching the input Pattern B but of reduced diffraction resolution | HPLC assessment post-compression (chemical stability) ([8]; compression for ca. 1 day (23 / 23¾ hours), 10×10^4N): no change to the impurity profile; also recorded: no discernible chemical degradation
